Assays:
Assay type in all cases: cell-based
germs = test: Germicidal activity, lowest active concentration; conditions: read-out: concentration at which germicidal activity is shown
Rhizopus oryzae = test: Contact fungicidal screen, Rhizopus oryzae; conditions: 0.1M NaOAc pH 4.6
Protocol: The organisms used in the Contact Fungicidal Screen are a dermatophyte, trychophyton mentagrophytes, frequently associated with athlete's foot; a yeast, Candida albican, causative agent of thrush and vaginitis; a phycomycete, Rhizopus oryzae, commonly known as black bread mold; an ascomycete, Aspergillus fumagatis, found in chicken droppings and causing lung infections; and another dermatophyte, Microsporum canis, which causes ringworm. These organisms are maintained as stock cultures at 4° C. on agar slants of the following composition: dextrose 2%, Neopeptone (Difco) 1%, agar 2%. Fluid medium of the same nutrient composition (without agar) was used to test the viability of the organisms after exposure to the fungicide. This medium is also known as Sabouraud's medium.
[…]. The mycelial mat is removed from the surface of the agar using a sterile spatula. It is transferred to a heat sterilized glass tissue grinder and macerated with 25 ml of sterile physiological saline. The suspension is then filtered through sterile glass wool. The density of the sporangia spore suspension is determined by counting in a hemacytometer. The suspension is stored at 4° C. until it was used, at which time it was diluted with sterile physiological saline to a density of 5×10^6 spores per ml.
The compounds are weighed into heat sterilized 100 ml volumetric flasks and immediately before screening dissolved in 0.1 M NaOAc pH 4.6 buffer (test solutions).
The Aspergillus, Candida, Microsporum and Rhizopus species are screened in a slightly different manner. Basically, the procedure for the Contact Germicidal Efficiency Screen is utilized. After the test solutions are made up, 5 ml aliquots are pipetted into heat sterilized 25 ml glass stoppered erlenmeyer flasks. The screen is initiated when 0.5 ml of the 5×10^6 cell (spore) per ml suspension is added to the flask containing 5 ml of the test solution. At intervals of 0.5, 2.5, 5.0, 10.0 and 15.0 minutes, a 4 mm loopful of the inoculated test solution is subcultured into 7 mL of sterile fluid Sabouraud's medium and mixed on a vortex, the high dilution serving to stop the action of the compound. The subculture tubes are incubated at 25°-30° C. for ten days with daily observation for mycelial growth. The earliest subculture time at which no growth is present is considered the endpoint and is recorded as the sterilization time.
To insure the viability of the culture, a 0.5 ml aliquot of the 5×10^6 cells (spores) per ml suspension is transferred to 5 ml of the pH 4.6 buffer. A loopful of the inoculated buffer is then subcultured to 7 ml of fluid Sabouraud's medium and incubated at 25°-30° C. for ten days. To insure that the dilution of the test solution into the subculture medium does stop the action, a loopful of the test solution and a loopful of the inoculated buffer are transferred into the same subculture tube. This tube is also incubated at 25°-30° C. for ten days.

Pseudamonas aeruginosa = test: Contact germicidal screen, Pseudamonas aeruginosa ATCC No. 14502
Protocol: The organisms used in the contact germicidal screen are all maintained as stock cultures on nutrient agar […] 4° C. They are transferred and biochemically diagnosed monthly. The five organisms used are: The media used are: […] Overnight cultures of the test organisms are grown in tryptose phosphate broth. After 15-16 hours, the cultures are centrifuged at […] for 15 minutes, and the supernatant replaced with fresh warm (37° C.) media. After two hours of incubation, the absorbance of the culture at 650 nm is determined and diluted with nutrient broth to 1×10^7 colony forming units per ml (using a previous determined standard curve: colony forming units/ml vs. absorbance at 650). The diluted cultures are maintained at 4°-8° C. throughout the screen. The compounds are weighed into sterile 100 ml volumetric flasks, and immediately before screening dissolved in one of the following buffers: 0.1 M NaOAc pH 4.6 or 0.1 M NaH2 PO4 pH 7.0. If solubility poses a problem, 10-30% methanol is used to effect solution. Two denaturing agents are also tested: […] Horse Serum restored with 100 ml distilled water and 10% Trition×100. When used, 2.5 ml of the denaturing agent is mixed with 2.5 ml of double strength test solution thirty minutes before the bacterial suspension is added. The screen is initiated when 0.2 ml of the bacterial suspension is added to 5.0 ml of the test solution contained in a sterile 25 ml glass stoppered flask. At intervals of 0.5, 2.5, 5.0, 10.0 and 15.0 minutes, a loopful of the inoculated test solution is subcultured into 5 ml of sterile nutrient broth and mixed with a vortex, the high dilution serving to stop the action of the compound. All of the subculture tubes are incubated at 37° C. and checked for signs of growth by turbidity at 1, 3, 5 and 7 days. The earliest subculture time at which no growth is present is considered the endpoint and is recorded as the sterilization time. An aliquot of 0.2 ml of the diluted culture is transferred to 5 ml of buffer to simulate 0.2 ml in 5 ml of test solution. (a) Purity: A loopful of the inoculated buffer is streaked onto nutrient agar to check colony morphology and lack of contaminants. (b) Viability: A loopful of the inoculated buffer is subcultured to 5 ml of nutrient broth as in the screen and incubated at 37° C. for 24 hours. (c) Dilution of the Test Solution: A loopful of the test solution is transferred to a 5 ml tube of nutrient broth, and a loopful of the inoculated buffer is transferred to the same tube of broth. […] (d) Purity of Organisms in the Test Solution: After the 15 minute subculture, a loopful of the inoculated test solution is streaked onto nutrient agar to insure that contamination has not occurred during the screen. (e) lack of Bactericidal Activity of Buffers and Other Solvents: Before a buffer or other solvent is used as a diluent, it is screened against the five organisms to insure that the buffer or solvent has no antibacterial activity itself.

[1] = 10.0+ PPM, 0.1M NaOAc pH 4.6, screened simultaneously with four other compounds
[2] = 300 PPM with 50% Horse Serum, 0.1M NaOAc pH 4.6
[3] = 300 PPM with 50% Triton X100, 0.1M NaOAc pH 4.6
[4] = 1000 PPM with 50% Horse Serum, 0.1M NaOAc pH 4.6

CC(C)(CC(=O)O)N(Cl)Cl [(II)]
minimal effective concentration (germs): ≤ 5 µg/mL | Sterilization Time (Rhizopus oryzae; 10 PPM): 15 min | Sterilization Time (Rhizopus oryzae; 100 PPM): 15 min | Sterilization Time (Rhizopus oryzae; 1000 PPM): 10.0 min | Sterilization Time (Pseudamonas aeruginosa; 1.8 PPM, 0.1M NaOAc pH 4.6): 15 min | Sterilization Time (Pseudamonas aeruginosa; 4.5 PPM, 0.1M NaOAc pH 4.6): 5.0 min | Sterilization Time (Pseudamonas aeruginosa; [1]): 2.5 min | Sterilization Time (summary) (Pseudamonas aeruginosa; 10 PPM, 0.1M NaOAc pH 4.6): 2.5 min | Sterilization Time (Pseudamonas aeruginosa; 10.0 PPM, 0.1M NaOAc pH 4.6): 2.5 min | Sterilization Time (Pseudamonas aeruginosa; 12.2 PPM, 0.1M NaOAc pH 4.6): 2.5 min | Sterilization Time (Pseudamonas aeruginosa; 32.1 PPM, 0.1M NaOAc pH 4.6): 2.5 min | Sterilization Time (Pseudamonas aeruginosa; 51.0 PPM, Triton X100 (10% solution):pH 4.6 buffer 1:1): 2.5 min | Sterilization Time (Pseudamonas aeruginosa; 51.0 PPM, horse serum:pH 4.6 buffer 1:1): 15 min | Sterilization Time (Pseudamonas aeruginosa; 71.7 PPM, 0.1M NaOAc pH 4.6): 0.5 min | Sterilization Time (summary) (Pseudamonas aeruginosa; 100 PPM, 0.1M NaOAc pH 4.6): 0.5 min | Sterilization Time (Pseudamonas aeruginosa; 104.7 PPM, 0.1M NaOAc pH 4.6): 0.5 min | Sterilization Time (Pseudamonas aeruginosa; 107.8 PPM, 0.1M NaH2PO4 pH 7.0): 15 min | Sterilization Time (Pseudamonas aeruginosa; 298.9 PPM, 0.1M NaOAc pH 4.6): 0.5 min | Sterilization Time (summary) (Pseudamonas aeruginosa; [2]): 15 min | Sterilization Time (summary) (Pseudamonas aeruginosa; [3]): 0.5 min | Sterilization Time (Pseudamonas aeruginosa; 300 PPM, pH 4.6 buffer with 10% serum): 0.5 min | Sterilization Time (Pseudamonas aeruginosa; 300 PPM, pH 4.6 buffer with 20% serum): 2.5 min | Sterilization Time (Pseudamonas aeruginosa; 300 PPM, pH 4.6 buffer with 35% serum): 10.0 min | Sterilization Time (Pseudamonas aeruginosa; 304.6 PPM, horse serum:pH 4.6 buffer 1:1): 15 min | Sterilization Time (Pseudamonas aeruginosa; 304.8 PPM, Triton X100 (10% solution):pH 4.6 buffer 1:1): 0.5 min | Sterilization Time (Pseudamonas aeruginosa; 316.6 PPM, 0.1M NaH2PO4 pH 7.0): 5.0 min | Sterilization Time (Pseudamonas aeruginosa; 606.9 PPM, pH 4.6 buffer with 33% serum): 2.5 min | Sterilization Time (Pseudamonas aeruginosa; 899.25 PPM, pH 4.6 buffer with 25% serum): 0.5 min | Sterilization Time (summary) (Pseudamonas aeruginosa; [4]): 2.5 min | Sterilization Time (summary) (Pseudamonas aeruginosa; 1000 PPM, 0.1M NaOAc pH 4.6): 0.5 min | Sterilization Time (Pseudamonas aeruginosa; 1001.2 PPM, horse serum:pH 4.6 buffer 1:1): 2.5 min | Sterilization Time (Pseudamonas aeruginosa; 1014.8 PPM, 0.1M NaOAc pH 4.6): 0.5 min | Sterilization Time (Pseudamonas aeruginosa; 1016.0 PPM, 0.1M NaH2PO4 pH 7.0): 2.5 min

CC(C)(CCC(=O)O)N(Cl)Cl [(III), 4-Dichloroamino-4-methylvaleric acid]
Sterilization Time (Rhizopus oryzae; 10 PPM): 15 min | Sterilization Time (Rhizopus oryzae; 100 PPM): 15 min | Sterilization Time (Rhizopus oryzae; 1000 PPM): 10.0 min | Sterilization Time (Pseudamonas aeruginosa; 9.6 PPM, 0.1M NaOAc pH 4.6): 5.0 min | Sterilization Time (Pseudamonas aeruginosa; 9.7 PPM, 0.1M NaH2PO4 pH 7.0): 15 min | Sterilization Time (Pseudamonas aeruginosa; [1]): 2.5 min | Sterilization Time (summary) (Pseudamonas aeruginosa; 10 PPM, 0.1M NaOAc pH 4.6): 2.5 min | Sterilization Time (summary) (Pseudamonas aeruginosa; 100 PPM, 0.1M NaOAc pH 4.6): 0.5 min | Sterilization Time (Pseudamonas aeruginosa; 102.2 PPM, 0.1M NaOAc pH 4.6): 0.5 min | Sterilization Time (Pseudamonas aeruginosa; 103.5 PPM, 0.1M NaH2PO4 pH 7.0): 15 min | Sterilization Time (summary) (Pseudamonas aeruginosa; [2]): 15 min | Sterilization Time (summary) (Pseudamonas aeruginosa; [3]): 2.5 min | Sterilization Time (Pseudamonas aeruginosa; 308.0 PPM, Triton X100 (10% solution):pH 4.6 buffer 1:1): 2.5 min | Sterilization Time (Pseudamonas aeruginosa; 308.0 PPM, horse serum:pH 4.6 buffer 1:1): 15 min | Sterilization Time (summary) (Pseudamonas aeruginosa; [4]): 5.0 min | Sterilization Time (summary) (Pseudamonas aeruginosa; 1000 PPM, 0.1M NaOAc pH 4.6): 0.5 min | Sterilization Time (Pseudamonas aeruginosa; 1000.0 PPM, horse serum:pH 4.6 buffer 1:1): 5.0 min | Sterilization Time (Pseudamonas aeruginosa; 1007.7 PPM, 0.1M NaOAc pH 4.6): 0.5 min | Sterilization Time (Pseudamonas aeruginosa; 1012.3 PPM, 0.1M NaH2PO4 pH 7.0): 5.0 min

CC(C)(COC(=O)CCCC(=O)O)N(Cl)Cl [(V), 2-dichloramino-2-methylpropyl-hemiglutarate]
Sterilization Time (Rhizopus oryzae; 10 PPM): 15 min | Sterilization Time (Rhizopus oryzae; 100 PPM): 15 min | Sterilization Time (Rhizopus oryzae; 1000 PPM): 15 min | Sterilization Time (Pseudamonas aeruginosa; [1]): 5.0 min | Sterilization Time (Pseudamonas aeruginosa; 10.0 PPM, 0.1M NaH2PO4 pH 7.0): 15 min | Sterilization Time (summary) (Pseudamonas aeruginosa; 10 PPM, 0.1M NaOAc pH 4.6): 5.0 min | Sterilization Time (Pseudamonas aeruginosa; 10.0 PPM, 0.1M NaOAc pH 4.6): 10.0 min | Sterilization Time (Pseudamonas aeruginosa; 99.1 PPM, 0.1M NaOAc pH 4.6): 2.5 min | Sterilization Time (summary) (Pseudamonas aeruginosa; 100 PPM, 0.1M NaOAc pH 4.6): 2.5 min | Sterilization Time (Pseudamonas aeruginosa; 106.7 PPM, 0.1M NaH2PO4 pH 7.0): 15 min | Sterilization Time (Pseudamonas aeruginosa; 291.4 PPM, Triton X100 (10% solution):pH 4.6 buffer 1:1): 2.5 min | Sterilization Time (Pseudamonas aeruginosa; 291.4 PPM, horse serum:pH 4.6 buffer 1:1): 15 min | Sterilization Time (summary) (Pseudamonas aeruginosa; [2]): 15 min | Sterilization Time (summary) (Pseudamonas aeruginosa; [3]): 2.5 min | Sterilization Time (Pseudamonas aeruginosa; 911.8 PPM, 0.1M NaOAc pH 4.6): 0.5 min | Sterilization Time (summary) (Pseudamonas aeruginosa; [4]): 10.0 min | Sterilization Time (summary) (Pseudamonas aeruginosa; 1000 PPM, 0.1M NaOAc pH 4.6): 0.5 min | Sterilization Time (Pseudamonas aeruginosa; 1024.4 PPM, 0.1M NaH2PO4 pH 7.0): 15 min | Sterilization Time (Pseudamonas aeruginosa; 1042.0 PPM, horse serum:pH 4.6 buffer 1:1): 10.0 min

From patent US4386103A, “Dichloroamino acid derivatives useful as potent germicidal and fungicidal agents” (Merck & Co., Inc., priority 1981, dated 1983)
